Tests used:
[1] = Maximum tolerated dose (MTD); parameters: species or system Balb/c mice; settings: Balb/c, mouse, in vivo
Description: N-[4-(1-benzoyl-piperidin-4-yl)-butyl]-3-(pyridin-3-yl)-acrylamide was given to the animals p.o. twice a day on days 10, 11, 12, 13, 14, and 15 after tumor implantation. The doses were 3, 5, 6, or 10 mg/kg per each administration. TNP-470 was injected into the animals s.c. on days 2, 4, 6, 8, 10, 12, 14, 16, 18 and 20 after tumor implantation at the maximum tolerated dose, 30 mg/kg. Control animals received the vehicle (0.9% saline solution) p.o. twice a day on days 10, 11, 12, 13, 14, and 15 after tumor implantation. At least seven animals per test group were used.
TNP-470 was administered at the MTD (maximum tolerated dose), 30 mg/kg, and over a longer time range than BPPA which was given below the MTD (approximately 12 mg/kg).

[2] = tested on: murine renal cell carcinoma (RENCA); test: Blood vessel density in primary tumors of murine renal cell carcinoma (RENCA) model; type: in vivo, Balb/c mice; settings: sacrifice day 21
Description: Murine RENCA cells were originally obtained from a tumor that arose spontaneously in the kidney of BALB/c mice. Histologically, RENCA consists of granular cell type adenocarcinoma, which is pleomorphic with large nuclei. Monolayers of murine RENCA cells were grown in RPMI 1640 with phenol red supplemented with 10% FCS, 2 mM L-glutamine, 100 units penicillin/ml, and 100 μg of streptomycin/ml. RENCA cells were cultured in a humidified atmosphere of 95% air and-5% carbon dioxide at 37° C. Media were routinely changed every 3 days.
For the in vivo administration N-[4-(1-benzoyl-piperidin-4-yl)-butyl]-3-(pyridin-3-yl)-acrylamide was solubilized in a 0.9% saline solution and TNP-470 in a saline solution containing 3% absolute ethanol.
All experiments were carried out using 6-8 weeks old male Balb/c mice (approximate weight, 20 g). Mice are maintained in separated conventional housing at constant temperature and humidity […]
All animals were sacrificed on day 21 after tumor implantation and the tumor tissue of all animals was surgically removed and quickly frozen in liquid nitrogen. […] For the visualization of the blood vessels, immunohistochemical staining for CD 31 (PECAM-1 and MEC 13.3; PharMingen, San Diego, Calif.) was performed, and vessels were counted microscopically using a defined magnification.

[3] = tested on: VEGF production in HepG2 cells; test: VEGF production in HepG2 cells (ELISA of culture supernatant); type: cell-based, human
Description: Trypsin/EDTA: 0.05% (w/v) trypsin (Difco, Detroit, USA)+0.016% (w/v) EDTA (Sigma, Deisenhofen, Germany). N-[4-(1-benzoyl-piperidin-4-yl)-butyl]-3-(pyridin-3-yl)-acrylamide (in the following also referred to as BPPA) was synthesized as described in the literature, by the department of chemistry at Klinge Pharma GmbH, Munich, Germany.
Stock solutions of test compound: a 10 mM solution was prepared in dimethyl sulfoxide (DMSO) and stored at −18° C.; further dilution steps were done in ethanol.
The human-derived tumor cell lines HepG2 (liver carcinoma) was obtained from the American Type Culture Collection (ATCC), Rockville, Md., USA.
Richter's Improved Minimal Essential Medium, Zinc Option (IMEM-ZO), was purchased from Gibco BRL, Life Technologies (Eggenstein, Germany). The standard medium MEM and the human serum albumin were purchased from Sigma (Deisenhofen, Germany). The medium powder was dissolved in deionized water, the pH titrated to 7.2 with HCl/NaOH and sterilized by filtration. The medium was supplemented with 10% fetal calf serum (FCS), PAN Systems GmbH, Aidenbach, Germany.
Monolayer cells were detached from 75 cm^2 flasks by removing the growth medium and adding 3 ml trypsin/EDTA solution to each flask. After about 5-10 minutes incubation at 37° C., when the cells were detached from the surface of the dishes, trypsinization was stopped by adding 3 ml Richter's IMEM-ZO medium containing 10% FCS. The cells were suspended by repeated pipetting. For predilution, an aliquot of 20 μl was added to 10 ml Casyton isotonic solution (No. 043-90037P, Scharfe System, Reutlingen, Germany) using a Sysmex Auto Dilutor Type AD-260 (Toa, Medical Electronics Co. Ltd., Kobe, Japan). The cell number was determined by electronic cell volume measurements by counting with a CASY 1 Cell Counter & Analyzer System, Model TTC (Schärfe System, Reutlingen, Germany) equipped with a 60 μm capillary. Following dilution in growth medium (IMEM-ZO), the cells were finally seeded at a density of 25,000 cells per 1000 μl in 24-well culture dishes (Greiner, Frickenhausen, Germany) for the VEGF assay and incubated at 37° C. in a humidified atmosphere of 5% CO2 in air.
After six days of incubation, when the cells were nearly confluent, the medium was removed and cultures were replenished with 1 ml fresh serum free MEM medium containing 0.1% human serum albumin plus the test substance or the solvent ethanol as control. The cells were then incubated at 37° C. in a humidified atmosphere of 5% CO2 in air. On the next day the medium was removed again and the cultures were incubated with further 0.5 ml serum free MEM containing 0.1% human serum albumin plus the test substance or the solvent ethanol as control. After 48 and 72 hours the medium was collected, centrifuged at 1000 rpm for 5 minutes to remove cell debris. Supernatants were stored at −20° C. until quantification of the VEGF concentration. Furthermore the protein content of the remaining cell layer in each well was determined as reference parameter.
VEGF determination was measured in the supernatants of the cell cultures using a commercially available ELISA kit (R&D, Systems, Wiesbaden/Germany). The method for the determination was performed as described in the test kit brochure.
The results are summarized in the following Table 1, where the VEGF concentration in the supernatant after 48 h and 72 h of incubation was determined. […]

Structure (SMILES)	MTD ([1]; po) [mg/kg]	vessel density in the RENCA tumor ([2]; 3, 5, 6 and 10 mg/kg p.o. twice a day on days 10-15 after tumor implantation, CD 31 staining)	VEGF concentration in the supernatant ([3]; 2 nM compound in medium, 48 hours incubation) [pg/200 μl]	VEGF concentration in the supernatant ([3]; 2 nM compound in medium, 72 hours incubation) [pg/200 μl]	VEGF concentration in the supernatant ([3]; 20 nM compound in medium, 48 hours incubation) [pg/200 μl]	VEGF concentration in the supernatant ([3]; 20 nM compound in medium, 72 hours incubation) [pg/200 μl]	inhibition of the production of VEGF ([3]; after 48 hours of incubation, FIG. 1)	MTD ([1]; sc) [mg/kg]	vessel density in the RENCA tumor, effectiveness compared to BPPA ([2]; 30 mg/kg (MTD) s.c. on days 2, 4, 6, 8, 10, 12, 14, 16, 18 and 20 after tumor implantation)
O=C(C=Cc1cccnc1)NCCCCC1CCN(C(=O)c2ccccc2)CC1 [BPPA, N-[4-(1-benzoyl-piperidin-4-yl)-butyl]-3-(pyridin-3-yl)-acrylamide]	~12	significantly reduced the vessel density	208.30	0.00	0.00	0.00	inhibited the production of VEGF in HepG2 cells very effectively	–	–
CO[C@@H]1[C@H](OC(=O)NC(=O)CCl)CC[C@]2(CO2)[C@H]1[C@@]1(C)O[C@@H]1CC=C(C)C [TNP-470, reference compound]	–	–	–	–	–	–	–	30	not as effective as BPPA

Reference: patent US20060052419A1, “Use of pyridly amides as inhibitors of angiogenesis” (priority 2002, published 2006)
